Experiments:
mice [1] = assay: Mouse tail flick test (analgesia); type: in vivo
Procedure: Following the preliminary results showing the in vitro agonist effect of TAPS c(2-6) in activating the μ-opioid receptor, the activity of TAPS c(2-6) in inducing analgesia in vivo was studied utilizing the mouse tail flick model. In this model, the mouse is exposed to local pain induced by an infrared light beam at the tail of the animal, and the time it takes for the animal to react to the pain, i.e., flick its tail, termed the “Latency time to tail flick,” is recorded. The treatment groups received either 5 or 15 mg/kg of TAPS c(2-6) dissolved in PBS. These were compared to animals receiving morphine (5 mg/kg) as a positive control or vehicle (PBS) as a negative control (Figure 9).
For the assessment of analgesia induced by TAPS c(2-6), the mouse tail-flick model was used. […] Animals were placed upon the TF instrument surface (Ugo Basile S.R.L) and held in place. The tail was placed straight back over an infrared light source. The heat source and timer were turned on and automatically switched off when the mouse flicked its tail away from the heat source. The time it took for the animal to flick its tail was measured and results were recorded as latency time to TF. […] Prior to TF measurement, assessment of possible locomotor side-effects via the Open-Field model was performed, as will be described in the next section TAPS c(2-6) Adverse Effect Assessment- the Open-Field Test.

mice [2] = assay: Mouse open field test (locomotor adverse effect)
Procedure: In the mouse open field test (OF test), the distance and speed the animal moves over a 5-min time period is recorded, giving an indication as to whether a medication administered affected its locomotor activity. TAPS c(2-6) (5 or 15 mg/kg) was administered via IP administration and compared to morphine (5 mg/kg) and vehicle (PBS).
Male ICR mice (Harlan, Israel) 7 weeks of age (25–27) were used for all pharmacodynamic experiments after 5-day acclimation to laboratory conditions. Animals were allowed free access to food (standard commercial, sterile rodent diet) and water throughout the experiments and kept in automatically controlled environmental conditions for temperature and humidity levels in a 12-h dark-light cycle.
Animals were placed in the OF apparatus for a period of 5 min. The apparatus utilizes computerized monitoring which measures the speed and distance the animal walks during the measurement period. […] Baseline measurements were taken 1 day before initiation of the experiments and again at 0.5, 1.5, 3, and 5 h post injection.

[3] = target: T1, δ (DOP, OPRD2) opioid receptor (Mus musculus, UniProt P32300); assay: DOP opioid receptor functional agonism in NG-10815 cells; type: cell-based, rat; details: At 10^−6 M, percent of control specific agonist response
T1 construct: NG-10815 cells which express significant endogenous levels of δ opioid receptors; host or cells: NG-10815 (NG108-15) mouse N18TG2 neuroblastoma x rat C6-BU-1 glioma hybrid cells
T1 sequence (P32300 whole entry): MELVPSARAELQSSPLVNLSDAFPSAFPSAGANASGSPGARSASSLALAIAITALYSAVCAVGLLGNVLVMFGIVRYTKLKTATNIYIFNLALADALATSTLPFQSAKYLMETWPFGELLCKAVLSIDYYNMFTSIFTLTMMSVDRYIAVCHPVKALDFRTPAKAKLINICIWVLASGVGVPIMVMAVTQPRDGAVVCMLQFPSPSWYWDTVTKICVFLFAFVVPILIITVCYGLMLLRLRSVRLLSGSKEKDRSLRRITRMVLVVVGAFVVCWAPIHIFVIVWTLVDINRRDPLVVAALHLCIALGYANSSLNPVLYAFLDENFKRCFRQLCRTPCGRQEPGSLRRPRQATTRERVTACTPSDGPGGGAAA
Procedure: (§1) Peptides were tested for μ (MOP, OPRM1) and δ (DOP, OPRD2) opioid receptor activation functional agonism and antagonism using CHO cells expressing human recombinant μ receptors and NG-10815 cells which express significant endogenous levels of δ opioid receptors. The cultures were incubated for 10 min at 37°C followed by impedance measurements of CHO cells and cAMP was assayed by the HTRF method using NG-10815 cells, according to CEREP standard assay protocols. The respective reference, non-peptide small molecules were tested concurrently with the TAPS analogs. The agonist compounds were: DPDPE (selective agonist of DOP receptor) and DAMGO (high MOP receptor specificity) and the antagonist compounds were: Naltrindole (selective DOP receptor antagonist) and CTOP (MOP receptor antagonist). […] The results are expressed as a percentage of respective control-specific response. […] These findings indicate that TAPS cyclic peptides are MOP selective full agonists. […] The cyclic TAPS peptide had lower activity than the linear parent TAPS peptide (90 ± 5%) – a finding that can be attributed to their restricted conformation relative to the flexible linear peptide conformation.
Evaluation of the Agonist Activity of Compounds at the Rat delta2 Receptor Endogenously Expressed in NG-10815 Cells, Determined by Measuring Their Effects on Impedance Modulation Using the CellKey (CDS) Detection Method
Cells are seeded onto 96-well plate coated with fibronectin at 2 × 10^5 cells/well in HBSS buffer (Invitrogen) + 20 mM HEPES (Invitrogen) with 0.1% BSA and allowed to equilibrate for 60 min at 37°C before the start of the experiment. Plates are placed onto the system and measurements are made at a temperature of 37°C. […] Impedance measurements are monitored for 10 min after ligand addition. The standard reference agonist is DPDPE, which is tested in each experiment at several concentrations to generate a concentration-response curve from which its EC50 value is calculated.
The respective reference, non-peptide small molecules were tested concurrently with the TAPS analogs; Agonist compounds DPDPE ([D-Pen2,D-Pen5]enkephalin), selective agonist of DOP receptor at 2 × 10^−9 M and DAMGO ([D-Ala2, N-MePhe4, Gly-ol] enkephalin), high MOP specificity at 2.5 × 10^−9 M; Antagonist compounds: naltrindole 7-(cyclopropylmethyl)-6,7-dehydro-4,5α-epoxy-3,14-dihydroxy-6,7-2′,3′-indolomorphinan hydrochloride, selective DOP antagonist, 5 × 10^−10 M and CTOP (D-Phe-Cys-Tyr-D-Trp-Orn-Thr-Pen-Thr-NH2), MOP antagonist at 3.4 × 10^−7 M. Depending on the assay volume and solvent tolerance, the stock solutions were diluted to [100×], [333×] or [1,000×] in 100% DMEM solvent, then either added directly or further diluted to [10×] or [5×] in H2O or Hank's balanced salt solution (HBSS) before addition to the assay well (final solvent concentration kept constant). The cultures were incubated for 10 min at 37°C followed by impedance measurements using cellular dielectric spectroscopy of CHO cells and cAMP was assayed by homogeneous time resolved fluorescence (HTRF) method using NG-10815 cells, according to CEREP standard assay protocols (https://euroscreenfast.com/assays/opioid-orl1-camp-fast-0360c; https://euroscreenfast.com/assays/opioid-op1-delta-camp-fast-0379c). […]

[4] = target: T1, δ (DOP, OPRD2) opioid receptor; assay: DOP opioid receptor functional antagonism in NG-10815 cells; type: cell-based, rat; details: Between 10^−9-10^−6 M, percent inhibition of control specific agonist response
Procedure: as §1
The respective reference, non-peptide small molecules were tested concurrently with the TAPS analogs; Agonist compounds DPDPE ([D-Pen2,D-Pen5]enkephalin), selective agonist of DOP receptor at 2 × 10^−9 M and DAMGO ([D-Ala2, N-MePhe4, Gly-ol] enkephalin), high MOP specificity at 2.5 × 10^−9 M; Antagonist compounds: naltrindole 7-(cyclopropylmethyl)-6,7-dehydro-4,5α-epoxy-3,14-dihydroxy-6,7-2′,3′-indolomorphinan hydrochloride, selective DOP antagonist, 5 × 10^−10 M and CTOP (D-Phe-Cys-Tyr-D-Trp-Orn-Thr-Pen-Thr-NH2), MOP antagonist at 3.4 × 10^−7 M. Depending on the assay volume and solvent tolerance, the stock solutions were diluted to [100×], [333×] or [1,000×] in 100% DMEM solvent, then either added directly or further diluted to [10×] or [5×] in H2O or Hank's balanced salt solution (HBSS) before addition to the assay well (final solvent concentration kept constant). The cultures were incubated for 10 min at 37°C followed by impedance measurements using cellular dielectric spectroscopy of CHO cells and cAMP was assayed by homogeneous time resolved fluorescence (HTRF) method using NG-10815 cells, according to CEREP standard assay protocols (https://euroscreenfast.com/assays/opioid-orl1-camp-fast-0360c; https://euroscreenfast.com/assays/opioid-op1-delta-camp-fast-0379c). The results (mean of three experiments) are expressed as a percent of control specific agonist response [(measured TAPS specific response/control specific agonist response) × 100] and as a percent inhibition of control specific agonist response [100 – (measured TAPS specific response/control specific agonist response) × 100] obtained in the presence of the TAPS compounds. Results showing a stimulation or an inhibition lower than 25% were considered not significant and mostly attributable to variability of the signal around the control level. Results showing a stimulation or an inhibition higher than 50% were considered to represent significant effects of the TAPS compounds.

[5] = Caco-2 permeability assay

For `N=C(N)NCCC[C@@H]1C(=O)N[C@@H](Cc2ccccc2)C(=O)N(CC(N)=O)CCNC(=O)NCCCCCCN1C(=O)[C@@H](N)Cc1ccc(O)cc1` [TAPS c(2-6)], the “analgesia (latency time to tail flick)” value (mice [1]; 5 mg/kg IP, compared to PBS) was “induced analgesia”, the “analgesia (latency time to tail flick)” value (mice [1]; 15 mg/kg IP, compared to morphine 5 mg/kg) was “comparative in strength and duration to that induced by morphine” and the duration of analgesia (mice [1]; higher dosage 15 mg/kg IP) was “at least 5 h”. The “locomotor effect (distance and speed of movement over 5 min)” value (mice [2]; 5 mg/kg IP) was “no locomotor effect”, the “locomotor effect (distance and speed of movement over 5 min)” value (mice [2]; 15 mg/kg IP) was “no locomotor effect” and the “DOP agonist (%)” value [3] was 11%. For the same molecule, the “DOP antagonist (%)” value [4] was 6%, the Papp [5] was 11 ×10⁻⁶ cm/s and the Papp A→B [5] was 0.038 ×10⁻⁶ cm/s. The Papp B→A [5] was 0.05 ×10⁻⁶ cm/s.

Source: article PMC7689096, “Cyclizing Painkillers: Development of Backbone-Cyclic TAPS Analogs” (Frontiers in Chemistry, 2020)
